{
  "source": "patent US20170209579A1",
  "about": "“NON-INVASIVE RADIOFREQUENCY FIELD TREATMENT FOR CANCER THERAPY” (Baylor College of Medicine, priority 2014, published 2017)",
  "test_system": "γ-H2AX in Hep3B xenografts",
  "test": "γ-H2AX fluorescence immunohistochemistry in Hep3B xenografts",
  "assay_type": "in vivo, mouse",
  "procedure": "(30A) Sites of DNA damage were evaluated using fluorescence immunohistochemistry for γ-H2AX. Also note the increased nuclear fragmentation in the DAPI channel for combination therapy groups.\nTumor tissues harvested at the end of the experiment were fixed in 10% buffered formalin (pH 7.0) for 24 hours and subsequently stored in 70% ethanol (v/v) before embedding them in paraffin. For immunohistochemistry, 5-micron sections were placed on a glass slide and tissue sections were de-paraffinized and rehydrated. Antigen retrieval was performed in citrate buffer at pH 6.0. The slides were placed in Tris-buffer (pH 8.0) before further processing.\nFor fluorescence immunohistochemistry, a protocol similar to that used for immunocytochemistry (described above) was used with some modifications described here. Tris-buffer was removed and tumor section was encircled using a pap pen (Electron microscopy sciences, Hatfield, Pa.). For blocking, 5% (w/v) BSA and 3% (v/v) NGS was used instead of 3% BSA and 1% NGS, respectively. Imaging was performed as for immunocytochemistry.\nDevelopment of mouse models and details of RF exposure and thermography are discussed in FIGS. 25 and 26. Mice bearing Hep3B orthotopic tumors were randomized to one of five groups: untreated, RF exposure alone, gemcitabine alone, gemcitabine followed 24 hours later by RF exposure, or RF exposure immediately followed by gemcitabine. The treatments were administered twice a week for three weeks for a total of six treatments. The gemcitabine dose administered was […] or 150 mg/kg/week. This is approximately half the dose used in humans (1000 mg/m2/week dose in a 1.7 m human=˜300 mg/kg/week dose in a mouse). Twenty-four hours after the last treatment, mice were killed and tumors were harvested, weighed, and fixed in formalin for later analysis (FIG. 19A). […]",
  "data": [
    {"smiles": "Nc1ccn([C@@H]2O[C@H](CO)[C@@H](O)C2(F)F)c(=O)n1", "note": "[gemcitabine, 2′,2′-difluoro 2′-deoxycytidine]", "values": [
      {"measurement": "Mean γ-H2AX positive pixels/HPF [±SD]", "setting": "RF then gemcitabine", "value": "45430±18980", "unit": "pixels/HPF"},
      {"measurement": "Mean γ-H2AX positive pixels/HPF [±SD]", "setting": "gemcitabine alone", "value": "27258±8022", "unit": "pixels/HPF"},
      {"measurement": "Mean γ-H2AX positive pixels/HPF [±SD]", "setting": "gemcitabine then RF", "value": "46968±10284", "unit": "pixels/HPF"}
    ]}
  ]
}
